Laboratory results as given in patent US20180263992A1, “TREATMENT OF NEURODEGENERATIVE DISEASES” (BENEVOLENTAI BIO LIMITED, priority 2015, published 2018).

Tests used:
[1] = multi-dose animal studies; cited from earlier work
[2] = in vivo; cited from earlier work
[3] = phase I trials; cited from earlier work
P-glycoprotein (P-gp) = P-glycoprotein (P-gp) (Homo sapiens, UniProt P08183); settings: Togashi et al. 2012; cited from earlier work
[4] = tested on: murine Hb9-GFP+ motor neurons co-cultured with ALS patient iAstrocytes; experiment: ALS patient iAstrocyte / mouse Hb9-GFP+ motor neuron co-culture, motor neuron survival; type: cell-based, human iAstrocytes, mouse motor neurons; settings: iAstrocytes of three ALS patients pre-treated 24 h; survival at 72 h vs 24 h, normalised to DMSO control
[5] = Entry of Gefitinib into the brain with prior P-gp inhibitor; type: in vivo, C57BL/6 mice
[6] = tested on: SOD1G93A mouse model of ALS; settings: cited from earlier work
human cancer cells = settings: cited from earlier work
[7] = in vivo; cited from earlier work; remark: listed apart in the source
ALS = settings: cited from earlier work

P-glycoprotein (P-gp), sequence (P08183 whole entry): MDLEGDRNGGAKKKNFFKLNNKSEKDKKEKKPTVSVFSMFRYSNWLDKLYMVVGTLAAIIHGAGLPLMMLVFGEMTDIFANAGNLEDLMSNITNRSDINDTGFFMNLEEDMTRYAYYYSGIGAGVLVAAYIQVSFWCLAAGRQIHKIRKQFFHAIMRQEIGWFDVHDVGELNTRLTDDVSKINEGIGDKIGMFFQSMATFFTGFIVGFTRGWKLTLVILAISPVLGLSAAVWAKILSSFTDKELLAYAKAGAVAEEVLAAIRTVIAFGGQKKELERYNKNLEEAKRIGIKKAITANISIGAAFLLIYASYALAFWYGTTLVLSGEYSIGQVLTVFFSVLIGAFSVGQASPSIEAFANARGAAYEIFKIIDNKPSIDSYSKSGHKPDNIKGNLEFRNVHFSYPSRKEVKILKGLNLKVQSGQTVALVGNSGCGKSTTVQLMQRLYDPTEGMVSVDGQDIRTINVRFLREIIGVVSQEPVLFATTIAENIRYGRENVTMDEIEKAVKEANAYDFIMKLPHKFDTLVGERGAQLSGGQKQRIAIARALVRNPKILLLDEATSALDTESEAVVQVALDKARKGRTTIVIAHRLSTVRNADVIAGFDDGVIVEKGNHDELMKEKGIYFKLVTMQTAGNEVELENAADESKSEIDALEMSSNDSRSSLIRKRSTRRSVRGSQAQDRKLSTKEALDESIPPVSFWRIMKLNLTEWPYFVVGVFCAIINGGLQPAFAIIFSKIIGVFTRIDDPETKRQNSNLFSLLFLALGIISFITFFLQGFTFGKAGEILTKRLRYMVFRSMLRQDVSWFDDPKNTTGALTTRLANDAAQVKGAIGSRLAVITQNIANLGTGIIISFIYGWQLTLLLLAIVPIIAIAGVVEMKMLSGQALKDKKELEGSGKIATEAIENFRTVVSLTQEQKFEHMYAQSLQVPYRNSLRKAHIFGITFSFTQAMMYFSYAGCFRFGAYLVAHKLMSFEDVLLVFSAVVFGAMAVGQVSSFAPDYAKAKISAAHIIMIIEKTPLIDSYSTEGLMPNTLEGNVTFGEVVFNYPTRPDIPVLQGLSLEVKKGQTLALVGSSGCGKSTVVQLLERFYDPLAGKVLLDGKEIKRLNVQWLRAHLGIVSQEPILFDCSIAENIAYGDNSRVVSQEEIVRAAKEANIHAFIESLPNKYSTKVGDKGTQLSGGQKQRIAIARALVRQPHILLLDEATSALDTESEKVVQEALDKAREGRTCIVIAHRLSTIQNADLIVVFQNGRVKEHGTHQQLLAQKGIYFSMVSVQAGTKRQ

C=CC(=O)Nc1cc2c(Nc3ccc(F)c(Cl)c3)ncnc2cc1OCCCN1CCOCC1 [canertinib]
toxicity [1]: minimal toxicity

COc1cc2ncnc(Nc3ccc(F)c(Cl)c3)c2cc1OCCCN1CCOCC1 [gefitinib, N-(3-chloro-4-fluoro-phenyl)-7-methoxy-6-(3-morpholin-4-ylpropoxy)quinazolin-4-amine]
biological half-life [2]: 28 hours | maximal tolerated dosage [3]: 700 mg/day | P-glycoprotein (P-gp) substrate status (P-glycoprotein (P-gp)): substrate | motor neuron survival [4]: dose-dependent increase in motor neuron survival

CO[C@H]1C[C@@H]2CC[C@@H](C)[C@@](O)(O2)C(=O)C(=O)N2CCCC[C@H]2C(=O)O[C@H]([C@H](C)C[C@@H]2CC[C@@H](OCCO)[C@H](OC)C2)CC(=O)[C@H](C)/C=C(\C)[C@@H](O)[C@@H](OC)C(=O)[C@H](C)C[C@H](C)/C=C/C=C/C=C/1C [Everolimus]
CNS penetration of Gefitinib ([5]; Everolimus 10 mg/kg ip): did not appear to have any effect | plasma exposure of Gefitinib ([5]; Everolimus 10 mg/kg ip): increased

COc1cc2c(cc1OC)CN(CCc1ccc(NC(=O)c3cccc4c(=O)c5cccc(OC)c5[nH]c34)cc1)CC2 [Elacridar]
CNS penetration of Gefitinib ([5]; Elacridar 100 mg/kg po before Gefitinib 30 mg/kg po, 2 h post dose): significantly increased | CNS penetration of Gefitinib ([5]; Elacridar 100 mg/kg po before Gefitinib 100 mg/kg po, 2 h post dose): significantly increased

C#Cc1cccc(Nc2ncnc3cc(OCCOC)c(OCCOC)cc23)c1 [erlotinib]
lifespan [6]: failed to extend lifespan | modulation of markers for astrocytes and microglia [6]: did not correlate with a modulation of markers for astrocytes and microglia | penetration into the central nervous system [6]: penetrated into the central nervous system | protection of motor synapses [6]: did not protect motor synapses | symptom delay (readouts of disease onset and progression) [6]: modest yet statistically significant symptom delay | cell-cycle progression (human cancer cells): blocks cell-cycle progression in the G1 phase | concentration inhibiting EGF-dependent cell proliferation (human cancer cells): nanomolar concentrations | undesirable side effects [7]: skin irritation and diarrhea

Nc1nc2ccc(OC(F)(F)F)cc2s1 [Riluzole]
prolongs life (ALS; ALS): 2-3 months | relief of symptoms (ALS; ALS): does not relieve symptoms | undesirable side effects (ALS; in vivo): nausea and fatigue
